Measurements: US20230286925A1, “PHENYL TRIAZOLE MLL1-WDR5 PROTEIN-PROTEIN INTERACTION INHIBITOR” (HUYABIO International, LLC, priority 2022, published 2023)
Like-named read-outs stand apart in the source and are kept apart here.

What was measured:
hERG = hERG (Homo sapiens (Human), UniProt Q12809); assay: hERG assay (radioligand membrane binding)
Description: Procedure: Compounds were prepared and diluted with DMSO to make 0.2 mM and 0.02 mM. Reference compound was diluted with DMSO to make 8-point 4-fold serial dilution, starting at 0.2 mM. One μl of compounds/high control/low control was transferred to the assay plate according to the plate map. Next, and by following the plate map, 100 μl of membrane stocks was dispensed into the plate followed by adding 100 μl of radio ligand. Plates were then sealed and were incubated at RT for 1 hrs. In the meantime, soak the Unifilter-96 GF/C filter plates with 50 μl of 0.5% BSA per well for at least 0.5 hour at room temperature. When binding assays are completed, filter the reaction mixture through GF/C plates using Perkin Elmer Filtermate Harvester, and then wash each plate for 4 times with cold wash buffer. Next, Dry the filter plates for 1 hour at 50 degrees and seal the bottom of the filter plate wells using Perkin Elmer Unifilter-96 backing seal tape. Next, add 50 μl of Perkin Elmer Microscint 20 cocktail. Seal the top of the filter plate with Perkin Elmer TopSeal-A sealing film. Using Perkin Elmer MicroBeta2 Reader count ^3H trapped on filter. Finally, analyze the data with GraphPad Prism 5. Calculate the “Inhibition [% Control]” using the equation: % Inh=(1−Background subtracted Assay value/Background subtracted HC value)*100.
The compound of the disclosure were tested in several hERG assays.

[1] = target: MLL1-WDR5 protein-protein interaction (Homo sapiens (Human), UniProt P61964); assay: WDR5 TR-FRET assay of inhibition against MLL1-WDR5 protein-protein interaction; assay type: binding
Description: WDR5 TR-FRET Assay Procedure: Stock compounds were transferred to the assay plate by Echo Liquid Handler. Reactions were performed in the assay buffer (1×PBS, 300 mM NaCl, 0.5 mM TCEP, 0.1% CHAPS) containing 5 nM WDR5 protein, 10 nM peptide (Ac-ARTEVHLRKS-[Ahx-Ahx] [C]-Alexa Fluor 488-NH2) and 0.25 nM Tb-anti His antibody (Tb-Ab) in 384-well white plate (PerkinElmer) with a final volume of 20 μl. Compounds were incubated with WDR5 protein for 30 min at room temperature. Plates were covered, protected from light and incubated for 60 min at room temperature after adding the peptide and Tb-Ab. EnVision Multimode Plate Reader (PerkinElmer) was used for the TR-FRET assay with excitation wavelength at 340 nm and emission wavelength at 495 and 520 nm. The ratio of the 520/495 wavelengths were used to assess the degree of the FRET signal. IC50 was calculated by fitting the inhibition data using XLfit software to sigmoidal dose-response model.
Biphenyl compound DDO-2084 was reported to be a small molecule inhibitor that can inhibit MLL1-WDR5 protein-protein interaction, reduce MLL1 enzyme catalytic activity, and downregulate the expression of Hox and Meis-1 genes (Eur. J. Med. Chem. 2016, 124, 480-489). DDO-2084 is used as a positive control compound.

MV-411 cells = assay: Anti-proliferative activity against leukemia cells (CellTiterGlo viability, 72 hrs); assay type: cell-based; conditions: MV4-11, MV-411 human acute monocytic leukemia cell
Description: Procedure: MV-411 or Molm-13 cells were seeded into 384 well plates at 2000 cells/well density in 50 uL according plate map and were allowed to naturally sediment by waiting about 30 min in Clean Bench. Next, plated cells were centrifuged for 1 min at 1000 rpm and the excess cells were transferred into the flasks for further culture. Cells in the assay plates were incubated (at least 4 hrs) at 37° C., 5% CO2 for next process followed by adding the compounds as the plate map indicated. The tests were performed in duplicates with treatment of compounds at 10 pts 3 fold titration in 384 well plates. Taxol was as positive control while DMSO as negative control. To rule out edge effect, the wells on the edge were not seeded and therefore one 384 well plate holds 13 compounds. Cells viability was measured 72 hrs after incubation with compounds and using CellTiterGlo (promega) viability assay according to manufactory's instruction to check the ATP production in each well.
Experiments on anti-proliferative activity against leukemia cells were conducted with some of the compounds of the invention.

[2] = Table 7, read-out: WDR5 TR-FRET Assay (IC50 nM)
[3] = WDR5 TR-FRET, 5 nM WDR5 protein, 10 nM peptide, read-out: MLL1-WDR5 PPI inhibitory activity

hERG, sequence (Q12809 whole entry): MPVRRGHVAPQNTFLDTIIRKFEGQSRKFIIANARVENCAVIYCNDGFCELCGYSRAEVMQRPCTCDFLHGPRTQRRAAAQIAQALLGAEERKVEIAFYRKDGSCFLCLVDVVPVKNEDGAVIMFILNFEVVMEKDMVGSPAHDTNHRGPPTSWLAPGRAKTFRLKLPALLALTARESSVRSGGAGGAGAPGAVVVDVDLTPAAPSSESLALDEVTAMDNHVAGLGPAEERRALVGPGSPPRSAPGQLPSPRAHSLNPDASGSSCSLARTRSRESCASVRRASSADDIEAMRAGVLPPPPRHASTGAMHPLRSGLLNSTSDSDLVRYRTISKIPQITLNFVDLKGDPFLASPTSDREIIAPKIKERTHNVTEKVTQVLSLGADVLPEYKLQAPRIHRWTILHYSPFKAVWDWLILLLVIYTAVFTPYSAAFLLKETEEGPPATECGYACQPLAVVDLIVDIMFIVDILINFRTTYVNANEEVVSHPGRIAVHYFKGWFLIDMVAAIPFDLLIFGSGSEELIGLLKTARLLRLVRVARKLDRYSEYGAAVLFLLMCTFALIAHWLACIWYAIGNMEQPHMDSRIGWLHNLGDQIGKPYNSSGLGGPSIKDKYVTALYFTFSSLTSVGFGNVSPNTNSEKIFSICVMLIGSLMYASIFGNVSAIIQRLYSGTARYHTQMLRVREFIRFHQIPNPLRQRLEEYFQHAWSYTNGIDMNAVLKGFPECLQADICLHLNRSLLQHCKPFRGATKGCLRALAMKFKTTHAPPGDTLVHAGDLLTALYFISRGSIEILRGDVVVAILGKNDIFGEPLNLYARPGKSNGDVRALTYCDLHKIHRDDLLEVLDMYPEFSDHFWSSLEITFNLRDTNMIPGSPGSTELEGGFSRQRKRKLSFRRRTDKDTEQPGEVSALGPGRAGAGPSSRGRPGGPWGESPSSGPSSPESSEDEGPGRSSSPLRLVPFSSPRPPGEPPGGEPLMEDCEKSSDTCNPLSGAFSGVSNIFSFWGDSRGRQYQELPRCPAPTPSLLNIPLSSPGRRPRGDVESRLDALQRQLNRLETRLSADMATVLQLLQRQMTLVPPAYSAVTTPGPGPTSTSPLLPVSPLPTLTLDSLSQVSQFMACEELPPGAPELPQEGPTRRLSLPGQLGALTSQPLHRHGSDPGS

Compound	IC50 (hERG) [nM]	IC50 [1, 2] [nM]	GI50 (MV-411 cells; Table 7) [µM]	also measured
CN1CCN(c2ccc(-n3cc(C(=O)NCCCN4CCOCC4)nn3)cc2NC(=O)c2ccc(F)c(C(F)(F)F)c2)CC1 [Example 21, 1-(3-(4-fluoro-3-(trifluoromethyl)benzamido)-4-(4-methylpiperazin-1-yl)phenyl)-N-(3-morpholinopropyl)-1H-1,2,3-triazole-4-carboxamide]	> 10000			
CN1CCN(c2ccc(-n3cc(C(=O)NCCCN4CCOCC4)nn3)cc2NC(=O)c2ccc(F)c([N+](=O)[O-])c2)CC1 [Example 19, 1-(3-(4-fluoro-3-nitrobenzamido)-4-(4-methylpiperazin-1-yl)phenyl)-N-(3-morpholinopropyl)-1H-1,2,3-triazole-4-carboxamide]	> 10000			
CCN(CC)C(=O)c1cn(-c2cc(NC(=O)c3cc(N)c(F)c(C)c3Cl)c(N3C[C@@H](C)N(C)[C@@H](C)C3)cc2F)nn1 [Compound 29, 1-(5-(5-amino-2-chloro-4-fluoro-3-methylbenzamido)-2-fluoro-4-((3S,5R)-3,4,5-trimethylpiperazin-1-yl)phenyl)-N,N-diethyl-1H-1,2,3-triazole-4-carboxamide]	3600			Ki (hERG): 2040 nM
Cc1c(F)c([N+](=O)[O-])cc(C(=O)Nc2cc(-n3cc(C(=O)NCCCN4CCOCC4)nn3)ccc2N2CCN(C)CC2)c1Cl [Example 18, 1-[3-[(2-chloro-4-fluoro-3-methyl-5-nitro-benzoyl)amino]-4-(4-methylpiperazin-1-yl)phenyl]-N-(3-morpholinopropyl)triazole-4-carboxamide]	> 10000			
C[C@@H]1CN(c2ccc(-c3ccc(NC(=O)C4CCCCC4)cc3)c(F)c2Nc2ncnc(Cl)c2N)C[C@H](C)N1C [DDO-2213_014, N-(3′-((5-amino-6-chloropyrimidin-4-yl)amino)-2′-fluoro-4′-((3S,5R)-3,4,5-trimethylpiperazin-1-yl)-[1,1′-biphenyl]-4-yl)cyclohexanecarboxamide]		186	8.26	
C[C@H]1CN(c2cc(F)c(-c3cnc(N4CCOCC4)nc3)cc2Nc2ncnc(Cl)c2N)CCN1C [DDO-2213_020, (S)-6-chloro-N4-(2-(3,4-dimethylpiperazin-1-yl)-4-fluoro-5-(2-morpholinopyrimidin-5-yl)phenyl)pyrimidine-4,5-diamine]		7.44	5.21	
COc1ccc(COC(=O)c2cn(-c3ccc(N4CCN(C)CC4)c(NC(=O)c4cc(N)c(F)c(C)c4Cl)c3)nn2)cc1 [HYBI_010]				IC50 [1, 3]: 9.62 nM; GI50 (MV-411 cells; Table 6): 5.95 µM
C[C@H]1CN(c2cc(F)c(-c3ccc(C(=O)NCC4CCOCC4)cc3)cc2Nc2ncnc(Cl)c2N)CCN1C [DDO-2213_016, (S)-5′-((5-amino-6-chloropyrimidin-4-yl)amino)-4′-(3,4-dimethylpiperazin-1-yl)-2′-fluoro-N-((tetrahydro-2H-pyran-4-yl)methyl)-[1,1′-biphenyl]-4-carboxamide]		12.2	6.31	
C[C@@H]1CN(c2ccc(-c3ccc(NC(=O)CC4CCCCC4)cc3)c(F)c2Nc2ncnc(Cl)c2N)C[C@H](C)N1C [DDO-2213_015, N-(3′-((5-amino-6-chloropyrimidin-4-yl)amino)-2′-fluoro-4′-((3S,5R)-3,4,5-trimethylpiperazin-1-yl)-[1,1′-biphenyl]-4-yl)-2-cyclohexylacetamide]		85.5	4.14	
Cc1c(F)c(N)cc(C(=O)Nc2cc(-n3cc(C(=O)NC4CCCCC4)nn3)c(F)cc2N2C[C@@H](C)N(C)[C@@H](C)C2)c1Cl [HYBI_085]				IC50 [1, 3]: 3.86 nM; GI50 (MV-411 cells; Table 6): 2.51 µM
Cc1cc(C)cc(C(=O)Nc2cc(-n3cc(C(=O)NCCCN4CCOCC4)nn3)ccc2N2CCN(C)CC2)c1 [HYBI_044]				IC50 [1, 3]: 903 nM; GI50 (MV-411 cells; Table 6): 64.8 µM
C[C@H]1CN(c2cc(F)c(-c3ccc(NC(=O)C4CCCCC4)cc3)cc2Nc2ncnc(Cl)c2N)CCN1C [DDO-2213_005, (S)—N-(5′-((5-amino-6-chloropyrimidin-4-yl)amino)-4′-(3,4-dimethylpiperazin-1-yl)-2′-fluoro-[1,1′-biphenyl]-4-yl)cyclohexanecarboxamide]		11.1	3.37	
